Test results: patent US6935334B2, “Enhancing therapeutic effectiveness of nitric oxide inhalation” (The General Hospital Corporation, priority 2000, dated 2005)

How the values were obtained:
[1] = system: hypoxic pulmonary vasoconstriction (HPV) in mice; experiment: Change in incremental left pulmonary vascular resistance (ΔiLPV) in response to LMBO, a measure of HPV (Example 2, FIG. 8); type: in vivo, mouse
Description: We performed experiments on the change in incremental left pulmonary vascular resistance, ΔiLPV, in response to LMBO—a measure of HPV. HPV was impaired in wild-type mice challenged with endotoxin (FIG. 8). HPV was preserved in endotoxin-challenged mice treated with N-acetylcysteine at 500 mg/kg, but not 150 mg/kg (intraperitoneal administration simultaneously with endotoxin).

[2] = system: isolated-perfused mouse lungs preconstricted with U46619; experiment: Pulmonary vasodilator response to NO inhalation in isolated, perfused and ventilated mouse lungs preconstricted with U46619; type: in vivo; details: for impairment of responsiveness to NO inhalation: wild-type mice treated with endotoxin, scavengers of reactive oxygen and nitrogen species; for vasodilator response to NO inhalation, compared to that in control mice: endotoxin-challenged (LPS 50 mg/kg i.p.) wild-type mice treated with NAC 150 mg/kg i.p. immediately and 3.5 hours later, lungs isolated 16 hours after endotoxin
Description: Isolated, Perfused, and Ventilated Mouse Lung Model Mice were killed by intraperitoneal injection of pentobarbital sodium (200 mg/kg body weight) and placed in a 37° C. water-jacketed chamber (Isolated Perfused Lung Size 1 Type 839; Hugo-Sachs Elektronik, March-Hugstetten, Germany). The trachea was isolated and intubated, and the lungs were ventilated with 21% O2, 6% CO2 and 73% N2 using a volume-controlled ventilator (model 687; Harvard Apparatus, South Natick, Mass.) at a ventilatory rate of 85 breaths/min and 2 cm H2O end-expiratory pressure. The tidal volume was adjusted to provide a peak inspiratory pressure of 10 cm H2O throughout each study. The lungs were exposed via a midline sternotomy, and a ligataure was placaed around the aorticopulmonary outflow tract. After injection of 10 IU heparin into the right ventricle, the pulmonary artery was cannulated with a stainless steel cannula (1 mm ID) via the right ventricle. The pulmonary venous effluent was drained via a stainless steel cannula (1 mm ID) placed through the apex of the left ventricle across the mitral valve and into the left atrium. Left atrial pressure was maintained at 2 mmHg. Lungs were perfused at a constant flow (50 ml. kg body weight^−1. min^−1; Ismatec Reglo-Analogue roller pump; Laboratoriumstechnik GmbH, Wertheim-Mondfeld, Germany) with a non-recirculating system at 37° C. The perfusate used was Hanks' Balanced Salt Solution (GibcoBRL, Grand Island, N.Y.) containing 1.26 mM CaCl2, 5.33 mM KCl, 0.44 mM KH2PO4, 0.50 mM MgCl2, 0.41 mM MgSO4, 138.0 mM NaCl, 4.0 mM NaHCO3, 0.3 mM Na2HPO4, and 5.6 mM glucose. Bovine serum albumin, 5%, and dextran, 5% (both from Sigma Chemical Co., St. Louis, Mo.), were added to the perfusate to prevent pulmonary edema, in the isolated, perfused, and ventilated rat lung, essentially as described in Holzmann et al., 1996, Am. J. Physiol. 271:L981-L986. Indomethacin, […] (Sigma Chemical Co.), and 1 mM L-NAME (Sigma Chemical Co.) were added to the perfusate to inhibit endogenous prostaglandin and NO synthesis, respectively. Sodium bicarbonate was added to adjust the perfusate pH to 7.34-7.43.
Pulmonary artery pressure (PAP) and left atrial pressure were measured via saline-filled membrane pressure transducers (Argon, Athens, Tex.) connected to a side port of the inflow and outflow cannulae, respectively. Airway pressure (Paw) was measured using a differential pressure transducer (model MP-45-32-871; Validyne Engineering Corp., Northridge, Calif.) connected to the inspiratory limb just before the Y piece. Pressure transducers were connected to a biomedical amplifier (Hewlett Packard 7754B, Andover, Mass.), and data were recorded at 150 Hz on a personal computer using an analog-to-digital interface with a data acquisition system (DI-220; Dataq Instruments, Akron, Ohio). The system was calibrated before each experiment.
For NO inhalation, NO gas (800 or 80 ppm NO in nitrogen, Airco, Murray Hill, N.J.) was blended (Oxygen Blender; Bird Corporation, Palm Springs, Calif.) with oxygen, carbon dioxide, and nitrogen to achieve a final concentration of 21% O2, 6% CO2, and the desired NO concentration. NO and higher oxidative states of NO (NOx; CLD 700 AL; Eco Physics, Dürmten, Switzerland), oxygen (Hudson Ventronics Ddivision, Temecula, Calif.), and carbon dioxide (Datex CO2 monitor; Puritan-Bennett Corpration, Los Angeles, Calif.) concentrations were monitored continuously.
Pulmonary Vascular Response to NO inhalation after Lipopolysaccharide Challenge Wild-type mice and NOS2-deficient mice were injected intraperitoneally with 50 mg/kg body weight Escherichia coli 0111:B4 lipopolysaccharide (LPS; Difco Laboratories, Detroit, Mich.) dissolved in saline 16 h before isolated lung perfusion. This time point was chosen based on previous studies in rats (Holzmann et al., 1996, Am. J. Physiol. 271:L981-L986). Untreated wild-type and NOS2-deficient mice served as controls. […]

[3] = system: hypoxic pulmonary vasoconstriction (HPV) in mice; experiment: Percent increase in left pulmonary vascular resistance (LPVR) after LMBO, one-lung hypoxia model (Example 3, FIG. 13); type: in vivo, mouse; details: endotoxin-challenged wild-type mice
Description: Wild-type (SV129B6/F1) mice and 5LO-deficient mice were anesthetized and studied at thoracotomy. Left pulmonary artery flow (QLPA) and pulmonary (PPA) and systemic (PSA) artery pressures were measured continuously.
HPV was assessed as the percent increase in left pulmonary vascular resistance (the slope of the P/Q-relationship, LPVR) after left main bronchus occlusion (LMBO). LMBO increased LPVR by 99±13% in 5LO deficient mice, and by 100±11% in wild-type mice.

[4] = system: pulmonary vasculature of wild-type mice; experiment: Pulmonary vasoconstrictor response to intravenous angiotensin II; type: in vivo, mouse; details: for PVR: 5.0 μg/kg per minute angiotensin II
Description: Group 6: pulmonary vascular response to increasing doses of intravenous angiotensin II. SV129/B6F1 wild-type mice treated with endotoxin (n=5) or with saline (n=3) were studied 22 hours after the challenge.
Infusion of angiotensin II. Increasing doses of angiotensin II (0.05, 0.5, and 5.0 ng/g bw per minute) dissolved in sterile normal saline were infused via the central venous catheter using an infusion pump (Pump 11; Harvard Apparatus Co., South Natick, Mass.). PLA, PPA, PSA, and QLTAF were continuously measured.

[Cl-].[Mn+3].[O-]c1ccccc1C=NCCN=Cc1ccccc1[O-] [EUK-8]
HPV (ΔiLPV in response to LMBO) ([1]; endotoxin-challenged mice treated with EUK-8): completely preserved
impairment of responsiveness to NO inhalation [2]: prevented impairment of responsiveness to NO inhalation

CN(C)C(=O)CCSC(SCCC(=O)O)c1cccc(/C=C/c2ccc3ccc(Cl)cc3n2)c1 (stereo not drawn) [MK571]
HPV (LMBO-induced increase in left PVR) [3]: preserved

CC(C)c1ccc2c(c1)c(SC(C)(C)C)c(CC(C)(C)C(=O)O)n2Cc1ccc(Cl)cc1 [MK886]
HPV (LMBO-induced increase in left PVR) [3]: preserved

CC(=O)N[C@@H](CS)C(=O)O [N-acetylcysteine]
HPV (ΔiLPV in response to LMBO) ([1]; endotoxin-challenged mice, 150 mg/kg intraperitoneally simultaneously with endotoxin): not
HPV (ΔiLPV in response to LMBO) ([1]; endotoxin-challenged mice, 500 mg/kg intraperitoneally simultaneously with endotoxin): preserved
HPV ([1]; endotoxin-challenged wild-type mice treated with N-acetylcysteine and exposed to 20 ppm NO for 22 hours): not impaired
vasodilator response to NO inhalation, compared to that in control mice ([2]; 0.4 ppm NO): 75±14%
vasodilator response to NO inhalation, compared to that in control mice ([2]; 4.0 ppm NO): 103±15%
vasodilator response to NO inhalation, compared to that in control mice ([2]; 40 ppm NO): 91±7%
responsiveness to NO inhalation after prolonged NO exposure ([2]; endotoxin-challenged, NAC-treated mice exposed to 20 ppm NO for 16 hours): preserved
lipopolysaccharide-induced attenuation of vasoreactivity to NO inhalation (FIG. 5) ([2]; two doses of 150 mg/kg i.p., simultaneously with lipopolysaccharide and 3.5 hours later): completely protected
impairment of responsiveness to NO inhalation [2]: prevented impairment of responsiveness to NO inhalation

CNC(=O)NC [dimethylurea]
impairment of responsiveness to NO inhalation [2]: prevented impairment of responsiveness to NO inhalation

angiotensin II: vasoconstrictor infused intravenously to test pulmonary vascular contractile function (DRVYIHPF; Angiotensin-2; UniProt P01019 25-32, looked up)
PVR ([4]; endotoxin-challenged wild-type mice, baseline 55±11): 174±40 mmHg·min·g·mL^−1
PVR ([4]; saline-treated wild-type mice without endotoxin, baseline 74±24): 184±25 mmHg·min·g·mL−1
PLA in response to angiotensin II infusion ([4]; saline-treated and endotoxin-treated wild-type mice (either group)): did not change

B1: catalase: scavenger of reactive oxygen and nitrogen species (anti-ROS agent) (protein, UniProt P04040 2-527, looked up)
Catalase: ADSRDPASDQMQHWKEQRAAQKADVLTTGAGNPVGDKLNVITVGPRGPLLVQDVVFTDEMAHFDRERIPERVVHAKGAGAFGYFEVTHDITKYSKAKVFEHIGKKTPIAVRFSTVAGESGSADTVRDPRGFAVKFYTEDGNWDLVGNNTPIFFIRDPILFPSFIHSQKRNPQTHLKDPDMVWDFWSLRPESLHQVSFLFSDRGIPDGHRHMNGYGSHTFKLVNANGEAVYCKFHYKTDQGIKNLSVEDAARLSQEDPDYGIRDLFNAIATGKYPSWTFYIQVMTFNQAETFPFNPFDLTKVWPHKDYPLIPVGKLVLNRNPVNYFAEVEQIAFDPSNMPPGIEASPDKMLQGRLFAYPDTHRHRLGPNYLHIPVNCPYRARVANYQRDGPMCMQDNQGGAPNYYPNSFGAPEQQPSALEHSIQYSGEVRRFNTANDDNVTQVRAFYVNVLNEEQRKRLCENIAGHLKDAQIFIQKKAVKNFTEVHPDYGSHIQALLDKYNAEKPKNAIHTFVQSGSHLAAREKANL
impairment of responsiveness to NO inhalation [2]: prevented impairment of responsiveness to NO inhalation
